Results: patent US7192906B2, “Substituted pyrazole derivatives, production process thereof, and herbicide compositions containing the derivatives” (SDS Biotech K.K., priority 2001, dated 2007)

Tests used:
Type in all cases: in vivo
Rice (Oryza sativa) = assay: Test Example 3 paddy field treatment, crop phytotoxicity; details: paddy field treatment, transplanted rice Koshihikari, wettable powder, active ingredient 1 kg per hectare, 21st day after the dropping, index 0-5
Procedure, shortened: (§1)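 Scoring used a 0–5 scale of herbicidal effect or phytotoxicity, from <10% to ≥90%, taken 21 days after treatment. Treatment was 1 kg a.i./ha as diluted wettable powder dripped onto 4 cm-deep flooded pots sown with the weeds, 10 days after transplanting two-leaf Koshihikari rice.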

Setaria viridis [1] = assay: Test Example 2 upland soil treatment; details: Table 5, upland soil treatment, index 0-5
Procedure, shortened: (§2)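 Dose of 1 kg active ingredient per hectare, given as diluted wettable powder to the soil surface the day after sowing in upland soil (~1 cm cover). Effect rated 21 days on: 5 for ≥90%, 4 for 70–<90%, down to 0 for <10%.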

Stellaria media [2] = assay: Test Example 2 upland soil treatment; details: Table 5, upland soil treatment, index 0-5
Procedure, shortened: as §2

Chenopodium album [3] = assay: Test Example 2 upland soil treatment; details: Table 5, upland soil treatment, index 0-5
Procedure, shortened: as §2

Digitaria adscendens [4] = assay: Test Example 2 upland soil treatment; details: Table 5, upland soil treatment, index 0-5
Procedure, shortened: as §2

[5] = system: wheat (Triticum aestivum); assay: Test Example 2 upland soil treatment, crop phytotoxicity; details: Table 5, upland soil treatment, index 0-5
Procedure, shortened: as §2

soybean (Glycine max) [6] = assay: as above; details: Table 5, upland soil treatment, index 0-5
Procedure, shortened: as §2

Setaria viridis [7] = assay: Test Example 1 upland field foliage treatment; details: Table 4, upland field foliage treatment, index 0-5
Procedure, shortened: (§3)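 A leaf-surface application at an active-ingredient rate of 1 kg per hectare was made to 14-day-old plants in upland soil. Evaluation followed 21 days later using a six-grade scale, where grade 5 means at least 90% kill or phytotoxicity.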

Stellaria media [8] = assay: Test Example 1 upland field foliage treatment; details: Table 4, upland field foliage treatment, index 0-5
Procedure, shortened: as §3

Chenopodium album [9] = assay: Test Example 1 upland field foliage treatment; details: Table 4, upland field foliage treatment, index 0-5
Procedure, shortened: as §3

Digitaria adscendens [10] = assay: Test Example 1 upland field foliage treatment; details: Table 4, upland field foliage treatment, index 0-5
Procedure, shortened: as §3

Monochoria vaginalis = assay: Test Example 3 paddy field treatment; details: paddy field treatment, wettable powder, active ingredient 1 kg per hectare, 21st day after the dropping, index 0-5
Procedure, shortened: as §1

Echinochloa crusgalli = assay: Test Example 3 paddy field treatment; details: paddy field treatment, wettable powder, active ingredient 1 kg per hectare, 21st day after the dropping, index 0-5
Procedure, shortened: as §1

Scirpus juncoides = assay: Test Example 3 paddy field treatment; details: paddy field treatment, wettable powder, active ingredient 1 kg per hectare, 21st day after the dropping, index 0-5
Procedure, shortened: as §1

Ammannia multiflora = assay: Test Example 3 paddy field treatment; details: paddy field treatment, wettable powder, active ingredient 1 kg per hectare, 21st day after the dropping, index 0-5
Procedure, shortened: as §1

[11] = system: wheat (Triticum aestivum); assay: Test Example 1 upland field foliage treatment, crop phytotoxicity; details: Table 4, upland field foliage treatment, index 0-5
Procedure, shortened: as §3

soybean (Glycine max) [12] = assay: as above; details: Table 4, upland field foliage treatment, index 0-5
Procedure, shortened: as §3

`CON=C(Cn1cc(C)c(-c2ccccc2)n1)C(=O)NC1CCCCC1` [Compound 24] was tested, and the “Herbicidal activity OS (phytotoxicity to rice)” value (“Herbicidal activity OS” below) (Rice (Oryza sativa)) was 0 (herbicidal effect of not less than 0% and less than 10%, or phytotoxicity of 0% or more and less than 10%), the “Herbicidal activity SV: Setaria viridis” value (Setaria viridis [1]) was 4 (herbicidal effect of not less than 70% and less than 90%, or phytotoxicity of 70% or more and less than 90%) and the “Herbicidal activity SM: Stellaria media” value (Stellaria media [2]) was 4 (herbicidal effect of not less than 70% and less than 90%, or phytotoxicity of 70% or more and less than 90%). The “Herbicidal activity CA: Chenopodium album” value (from here on “Herbicidal activity CA”) (Chenopodium album [3]) was 5 (herbicidal effect of not less than 90%, or phytotoxicity of 90% or more), the “Herbicidal activity DA: Digitaria adscendens” value (“Herbicidal activity DA” for short) (Digitaria adscendens [4]) was 3 (herbicidal effect of not less than 50% and less than 70%, or phytotoxicity of 50% or more and less than 70%) and the “Herbicidal activity (phytotoxicity) TA: Wheat (Triticum aestivum)” value (from here on “Herbicidal activity (phytotoxicity) TA”) [5] was 0 (herbicidal effect of not less than 0% and less than 10%, or phytotoxicity of 0% or more and less than 10%). For the same compound, the “Herbicidal activity (phytotoxicity) GM: Soybean (Glycine max)” value (“Herbicidal activity (phytotoxicity) GM” for short) (soybean (Glycine max) [6]) was 0 (herbicidal effect of not less than 0% and less than 10%, or phytotoxicity of 0% or more and less than 10%), the “Herbicidal activity SV: Setaria viridis” value (Setaria viridis [7]) was 4 (herbicidal effect of not less than 70% and less than 90%, or phytotoxicity of 70% or more and less than 90%) and the “Herbicidal activity SM: Stellaria media” value (Stellaria media [8]) was 4 (herbicidal effect of not less than 70% and less than 90%, or phytotoxicity of 70% or more and less than 90%). For the same compound, the “Herbicidal activity CA” value (Chenopodium album [9]) was 4 (herbicidal effect of not less than 70% and less than 90%, or phytotoxicity of 70% or more and less than 90%), the “Herbicidal activity DA” value (Digitaria adscendens [10]) was 3 (herbicidal effect of not less than 50% and less than 70%, or phytotoxicity of 50% or more and less than 70%) and the “Herbicidal activity MV” value (Monochoria vaginalis) was 5 (herbicidal effect of not less than 90%, or phytotoxicity of 90% or more). The “Herbicidal activity EC” value (Echinochloa crusgalli) was 4 (herbicidal effect of not less than 70% and less than 90%, or phytotoxicity of 70% or more and less than 90%), the “Herbicidal activity SJ” value (Scirpus juncoides) was 4 (herbicidal effect of not less than 70% and less than 90%, or phytotoxicity of 70% or more and less than 90%) and the “Herbicidal activity AM” value (Ammannia multiflora) was 4 (herbicidal effect of not less than 70% and less than 90%, or phytotoxicity of 70% or more and less than 90%). For the same compound, the “Herbicidal activity (phytotoxicity) TA” value [11] was 0 (herbicidal effect of not less than 0% and less than 10%, or phytotoxicity of 0% or more and less than 10%) and the “Herbicidal activity (phytotoxicity) GM” value (soybean (Glycine max) [12]) was 0 (herbicidal effect of not less than 0% and less than 10%, or phytotoxicity of 0% or more and less than 10%).

With `C=CCNC(=O)C(Cn1cc(C)c(-c2ccccc2)n1)=NOC` [Compound 26] the “Herbicidal activity OS” value (Rice (Oryza sativa)) was 0 (herbicidal effect of not less than 0% and less than 10%, or phytotoxicity of 0% or more and less than 10%), the “Herbicidal activity SV: Setaria viridis” value (Setaria viridis [1]) was 4 (herbicidal effect of not less than 70% and less than 90%, or phytotoxicity of 70% or more and less than 90%) and the “Herbicidal activity SM: Stellaria media” value (Stellaria media [2]) was 5 (herbicidal effect of not less than 90%, or phytotoxicity of 90% or more). For the same compound, the “Herbicidal activity CA” value (Chenopodium album [3]) was 5 (herbicidal effect of not less than 90%, or phytotoxicity of 90% or more), the “Herbicidal activity DA” value (Digitaria adscendens [4]) was 5 (herbicidal effect of not less than 90%, or phytotoxicity of 90% or more) and the “Herbicidal activity (phytotoxicity) TA” value [5] was 0 (herbicidal effect of not less than 0% and less than 10%, or phytotoxicity of 0% or more and less than 10%). The “Herbicidal activity (phytotoxicity) GM” value (soybean (Glycine max) [6]) was 0 (herbicidal effect of not less than 0% and less than 10%, or phytotoxicity of 0% or more and less than 10%), the “Herbicidal activity SV: Setaria viridis” value (Setaria viridis [7]) was 4 (herbicidal effect of not less than 70% and less than 90%, or phytotoxicity of 70% or more and less than 90%) and the “Herbicidal activity SM: Stellaria media” value (Stellaria media [8]) was 5 (herbicidal effect of not less than 90%, or phytotoxicity of 90% or more). For the same compound, the “Herbicidal activity CA” value (Chenopodium album [9]) was 5 (herbicidal effect of not less than 90%, or phytotoxicity of 90% or more), the “Herbicidal activity DA” value (Digitaria adscendens [10]) was 5 (herbicidal effect of not less than 90%, or phytotoxicity of 90% or more) and the “Herbicidal activity MV” value (Monochoria vaginalis) was 5 (herbicidal effect of not less than 90%, or phytotoxicity of 90% or more). For the same compound, the “Herbicidal activity EC” value (Echinochloa crusgalli) was 5 (herbicidal effect of not less than 90%, or phytotoxicity of 90% or more), the “Herbicidal activity SJ” value (Scirpus juncoides) was 5 (herbicidal effect of not less than 90%, or phytotoxicity of 90% or more) and the “Herbicidal activity AM” value (Ammannia multiflora) was 5 (herbicidal effect of not less than 90%, or phytotoxicity of 90% or more). The “Herbicidal activity (phytotoxicity) TA” value [11] was 0 (herbicidal effect of not less than 0% and less than 10%, or phytotoxicity of 0% or more and less than 10%) and the “Herbicidal activity (phytotoxicity) GM” value (soybean (Glycine max) [12]) was 0 (herbicidal effect of not less than 0% and less than 10%, or phytotoxicity of 0% or more and less than 10%).

In the case of `C#CCNC(=O)C(Cn1cc(C)c(-c2ccccc2)n1)=NOC` [Compound 27], the “Herbicidal activity OS” value (Rice (Oryza sativa)) is reported as 0 (herbicidal effect of not less than 0% and less than 10%, or phytotoxicity of 0% or more and less than 10%), the “Herbicidal activity SV: Setaria viridis” value (Setaria viridis [1]) is reported as 5 (herbicidal effect of not less than 90%, or phytotoxicity of 90% or more) and the “Herbicidal activity SM: Stellaria media” value (Stellaria media [2]) is reported as 5 (herbicidal effect of not less than 90%, or phytotoxicity of 90% or more). The “Herbicidal activity CA” value (Chenopodium album [3]) was 5 (herbicidal effect of not less than 90%, or phytotoxicity of 90% or more), the “Herbicidal activity DA” value (Digitaria adscendens [4]) was 5 (herbicidal effect of not less than 90%, or phytotoxicity of 90% or more) and the “Herbicidal activity (phytotoxicity) TA” value [5] was 0 (herbicidal effect of not less than 0% and less than 10%, or phytotoxicity of 0% or more and less than 10%). The “Herbicidal activity (phytotoxicity) GM” value (soybean (Glycine max) [6]) was 1 (herbicidal effect of not less than 10% and less than 30%, or phytotoxicity of 10% or more and less than 30%), the “Herbicidal activity SV: Setaria viridis” value (Setaria viridis [7]) was 5 (herbicidal effect of not less than 90%, or phytotoxicity of 90% or more) and the “Herbicidal activity SM: Stellaria media” value (Stellaria media [8]) was 5 (herbicidal effect of not less than 90%, or phytotoxicity of 90% or more). The “Herbicidal activity CA” value (Chenopodium album [9]) was 5 (herbicidal effect of not less than 90%, or phytotoxicity of 90% or more), the “Herbicidal activity DA” value (Digitaria adscendens [10]) was 5 (herbicidal effect of not less than 90%, or phytotoxicity of 90% or more) and the “Herbicidal activity MV” value (Monochoria vaginalis) was 5 (herbicidal effect of not less than 90%, or phytotoxicity of 90% or more). The “Herbicidal activity EC” value (Echinochloa crusgalli) was 5 (herbicidal effect of not less than 90%, or phytotoxicity of 90% or more), the “Herbicidal activity SJ” value (Scirpus juncoides) was 5 (herbicidal effect of not less than 90%, or phytotoxicity of 90% or more) and the “Herbicidal activity AM” value (Ammannia multiflora) was 5 (herbicidal effect of not less than 90%, or phytotoxicity of 90% or more). The “Herbicidal activity (phytotoxicity) TA” value [11] was 0 (herbicidal effect of not less than 0% and less than 10%, or phytotoxicity of 0% or more and less than 10%) and the “Herbicidal activity (phytotoxicity) GM” value (soybean (Glycine max) [12]) was 0 (herbicidal effect of not less than 0% and less than 10%, or phytotoxicity of 0% or more and less than 10%).
